Data taken from patent US12384800B2, “Antitumoral compounds” (priority 2017, dated 2025).
Several values for one entry are separate records, joined by “and”; a condition that tells them apart may be missing. Equal entries are not always repeated. Where two headings read alike, the source gives them in different places.

Key:
[1] = MTMD (Maximum Tolerated Multiple Dose) determination, iv weekly x 3; type: in vivo; conditions: mice; iv/Q7d × 3
Source text: Female CD-1 or Athymic Nude-Fox1 nu/nu mice (Envigo) were utilized for all experiments. […] Animals were acclimated for five days prior to being individually tattoo-identified. Animal protocols were reviewed and approved according to the regional Institutional Animal Care and Use Committees.
Mice were randomly allocated into experimental groups and intravenously administered, once for the MTD (Maximum Tolerated Dose) determination or one administration a week during three consecutive weeks, for the MTMD (Maximum Tolerated Multiple Dose) determination study. The animals were administered with white formulation or with compound dissolved in the experimental formulation at different concentrations. The volume administered was always […]. Once administered, animals were monitored for clinical signs of systemic toxicity, changes in body weight and mortality up to 14 days after the administration.

[2] = test system: HT1080 tumors; conditions: Day 0
Description: (§1) Female athymic nu/nu mice (Harlan Laboratories Models, S.L. Barcelona, Spain or Envigo, Spain) were utilized for all experiments. Animal were housed in individually ventilated cages Sealsafe® Plus, Techniplast S.P.A.), up to ten per cage on a 12-hour light-dark cycle at 21-23° C. and 40-60% humidity. […] Animals were acclimated for at least 5 days prior to tumor implantation with a tumor cell suspension.
(§2) HT1080 cells were maintained in vitro at 37° C. with 5% CO2 in Minimum Essential Medium Eagle (MEME) (Sigma-Aldrich, Co). Each animal was orthotopically implanted into gastroecnemius muscle by an intramuscular injection using a 26G needle and a 1 cc syringe at 4-6 weeks of age, with 10×10^6 HT1080 cells, suspended in serum free medium, without antibiotics.
(§3) Treatment tolerability was assessed by monitoring body weight evolution, clinical signs of systemic toxicity, as well as evidences of local damage in the injection site.
(§4) In xenograft studies with HT1080 cell line: • Total diameter (tumor+leg) measurements were determined by using digital caliper (Fowler Sylvac, S235PAT).
(§5) Treatments producing >20% lethality and/or 20% net body weight loss were considered toxic.

[3] = test system: P388 lymphoma; conditions: U.S. Pat. No. 5,149,804; cited from earlier work
[4] = test system: B16 melanoma; conditions: U.S. Pat. No. 5,149,804; cited from earlier work
[5] = test system: Lewis lung carcinoma; conditions: U.S. Pat. No. 5,149,804; cited from earlier work
[6] = test system: xenografted human tumor cell lines (breast, kidney and ovarian cancer); conditions: xenografted human tumor cell lines in mice (breast, kidney and ovarian cancer); cited from earlier work
[7] = test system: MDA-MB-231 tumors; assay: Human breast xenograft, tumor volume
Description: as §1
MDA-MB-231 cells were maintained in vitro at 37° C. with 5% CO2 in Dulbecco's Modified Eagle's Medium (Sigma-Aldrich, Co). Culture cells were passaged every 3 to 5 days upon reaching confluence.
as §3
(§6) In Xenograft Studies with Other Cell Lines: • Tumor volume was calculated using the equation (a·b^2)/2, where a: length (longest diameter) and b: width (shortest diameter) were measured in mm by using digital caliper (Fowler Sylvac, S235PAT).
as §5

[8] = test system: A2780 tumors; assay: Human ovarian xenograft, tumor volume
Description: as §1
Culture cells were passaged every 3 to 5 days upon reaching confluence. Each animal was subcutaneously implanted (on the right flank using 26G needle and a 1 cc syringe) at 4-6 weeks of age with 10×10^6 A2780 cells suspended in 0.05 mL of a solution consisting of 50% Matrigel® (Corning Incorporated Life Sciences) and 50% medium without serum or antibiotics.
as §3, §6, §5

[9] = test system: HGC27 tumors; assay: Human gastric xenograft, tumor volume
Description: as §1
HGC27 cells were maintained in vitro at 37° C. with 5% CO2 in Iscove's Modified Dulbecco's Medium (Sigma Aldrich, Co). Culture cells were passage every 3 to 5 days on reaching confluence. Each animal was subcutaneously implanted (on the right flank using 26G needle and a 1 cc syringe) at 4-6 weeks of age with 5×10^6 HGC-27 cells suspended in 0.05 mL of a solution consisting of 50% Matrigel® (Corning Incorporated Life Sciences), 50% medium without serum or antibiotics.
as §3, §6, §5

[10] = test system: H460 tumors; assay: Human lung (NSCLC) xenograft, tumor volume
Description: as §1
H460 cells were maintained in vitro at 37° C. with 5% CO2 in Dulbecco's Modified Eagle's Medium (Sigma-Aldrich, Co). Culture cells were passaged every 3 to 5 days upon reaching confluence. Each animal was subcutaneously implanted (on the right flank using 26G needle and a 1 cc syringe) at 4-6 weeks of age with 5×10^6 H460 cells suspended in 0.05 mL of a solution consisting of 50% Matrigel® (Corning Incorporated Life Sciences) and 50% medium without serum or antibiotics.
as §3, §6, §5
Tables and figures summarize the data obtained from complete experimental groups, i.e. those groups keeping the initial number of animals, n=8-10.

[11] = test system: HT1080 tumors; assay: Human fibrosarcoma xenograft, total diameter (tumor + leg)
Description: as §1, §2, §3, §4, §5

COc1c(C)cc2c(c1O)[C@@H]1[C@@H]3[C@@H]4SC[C@]5(NCCc6c5oc5ccccc65)C(=O)OC[C@@H](c5c6c(c(C)c(OC(C)=O)c54)OCO6)N3[C@@H](O)[C@H](C2)N1C [Compound 32]
MTMD [1]: 0.5 mg/kg
Total diameter (tumor + leg) [2]: 7.5 mm

COc1c(C)cc2c(c1O)[C@@H]1[C@@H]3[C@@H]4SC[C@]5(NCCc6c5[nH]c5ccccc65)C(=O)OC[C@@H](c5c6c(c(C)c(OC(C)=O)c54)OCO6)N3[C@@H](O)[C@H](C2)N1C [ET-736, Ecteinascidin 736]
MTMD [1]: 0.5 mg/kg
protection of mice in vivo [3]: protects mice in vivo at very low concentrations
protection of mice in vivo [4]: protects mice in vivo at very low concentrations
protection of mice in vivo [5]: protects mice in vivo at very low concentrations

COc1ccc2[nH]c3c(c2c1)CCN[C@]31CS[C@@H]2c3c(OC(C)=O)c(C)c4c(c3[C@H](COC1=O)N1[C@@H]2[C@H]2c3c(cc(C)c(OC)c3O)C[C@@H]([C@@H]1O)N2C)OCO4 [PM01183, reference compound]
in vivo activity [6]: significant in vivo activity
Median Tumor Volume ([7]; Day 4): 177.2 mm^3
Median Tumor Volume ([7]; Day 7): 189.0 mm^3 and 185.9 mm^3 and 186.3 mm^3
Median Tumor Volume ([7]; Day 11): 250.7 mm^3
Median Tumor Volume ([7]; Day 14): 230.1 mm^3 and 290.8 mm^3 and 266.1 mm^3
Median Tumor Volume ([7]; Day 18): 327.7 mm^3
Median Tumor Volume ([7]; Day 21): 305.9 mm^3 and 337.9 mm^3 and 391.0 mm^3
Median Tumor Volume ([7]; Day 25): 493.1 mm^3
Median Tumor Volume ([7]; Day 28): 535.8 mm^3 and 507.4 mm^3 and 627.3 mm^3
Median Tumor Volume ([7]; Day 32): 789.0 mm^3
Median Tumor Volume ([7]; Day 35): 819.7 mm^3 and 796.1 mm^3
Median Tumor Volume ([7]; Day 36): 1022.0 mm^3
Median Tumor Volume ([7]; Day 39): 1294.2 mm^3
Median Tumor Volume ([7]; Day 42): 962.7 mm^3 and 1062.5 mm^3 and 1643.3 mm^3
Median Tumor Volume ([7]; Day 46): 1658.9 mm^3
Median Tumor Volume ([7]; Day 49): 1301.3 mm^3 and 1416.3 mm^3 and 1938.0 mm^3
Median Tumor Volume ([7]; Day 52): 2199.4 mm^3
Median Tumor Volume ([7]; Day 56): 1673.3 mm^3
Median Tumor Volume ([7]; Day 63): 1811.9 mm^3
Median Tumor Volume ([8]; Day 2): 235.5 mm^3 and 236.5 mm^3
Median Tumor Volume ([8]; Day 3): 454.5 mm^3
Median Tumor Volume ([8]; Day 4): 463.2 mm^3
Median Tumor Volume ([8]; Day 5): 671.2 mm^3 and 772.1 mm^3
Median Tumor Volume ([8]; Day 7): 1048.9 mm^3 and 1161.5 mm^3 and 986.3 mm^3
Median Tumor Volume ([8]; Day 9): 1451.4 mm^3
Median Tumor Volume ([8]; Day 10): 1615.6 mm^3
Median Tumor Volume ([8]; Day 11): 2062 mm^3 and 2062.0 mm^3
Median Tumor Volume ([8]; Day 12): 2020.3 mm^3 and 1703.0 mm^3
Median Tumor Volume ([8]; Day 14): 2029.3 mm^3
Median Tumor Volume ([9]; Day 2): 317.5 mm^3 and 372.4 mm^3 and 395.6 mm^3
Median Tumor Volume ([9]; Day 5): 404.0 mm^3 and 474.1 mm^3 and 572.4 mm^3
Median Tumor Volume ([9]; Day 7): 485.7 mm^3 and 571.8 mm^3 and 766.6 mm^3
Median Tumor Volume ([9]; Day 9): 604.6 mm^3 and 787.9 mm^3 and 950.7 mm^3
Median Tumor Volume ([9]; Day 12): 760.8 mm^3 and 951.1 mm^3
Median Tumor Volume ([9]; Day 14): 789.6 mm^3 and 1064.4 mm^3 and 1199.4 mm^3
Median Tumor Volume ([9]; Day 16): 719.5 mm^3 and 1346.1 mm^3 and 1353.1 mm^3
Median Tumor Volume ([9]; Day 19): 895.9 mm^3 and 1691.8 mm^3 and 1294.3 mm^3
Median Tumor Volume ([9]; Day 21): 1051.3 mm^3 and 1920.0 mm^3 and 1335.1 mm^3
Median Tumor Volume ([9]; Day 23): 2011.4 mm^3 and 1320.3 mm^3
Median Tumor Volume ([9]; Day 26): 1901.2 mm^3 and 2102.2 mm^3 and 1364.5 mm^3
Median Tumor Volume ([9]; Day 28): 2028.9 mm^3
Median Tumor Volume ([9]; Day 30): 1671.9 mm^3
Median Tumor Volume ([9]; Day 33): 2009.2 mm^3
Median Tumor Volume ([10]; Day 2): 457.0 mm^3
Median Tumor Volume ([10]; Day 4): 861.5 mm^3
Median Tumor Volume ([10]; Day 7): 940.4 mm^3 and 1004.0 mm^3 and 1280.2 mm^3
Median Tumor Volume ([10]; Day 9): 1210.3 mm^3 and 1211.3 mm^3 and 1424.9 mm^3
Median Tumor Volume ([10]; Day 11): 1433.8 mm^3 and 1969.9 mm^3
Median Tumor Volume ([10]; Day 12): 1515.4 mm^3
Median Tumor Volume ([10]; Day 14): 1529.5 mm^3 and 1633.3 mm^3
Median Tumor Volume ([10]; Day 16): 1723.9 mm^3
Median Tumor Volume ([10]; Day 19): 2112.3 mm^3
Median Tumor Volume ([10]; Day 21): 2409.4 mm^3
Total diameter (tumor + leg) ([11]; Day 2): 9.8 mm
Total diameter (tumor + leg) ([11]; Day 2, iv Days 0, 7 and 14, PM01183 […], Compound D 0.5 mg/kg): 9.2 mm
Total diameter (tumor + leg) ([11]; Day 5): 9.7 mm
Total diameter (tumor + leg) ([11]; Day 7): 11.4 mm
Total diameter (tumor + leg) ([11]; Day 7, iv Days 0, 7 and 14, PM01183 […], 4-R 0.30 mg/kg): 11.2 mm
Total diameter (tumor + leg) ([11]; Day 7, iv Days 0, 7 and 14, PM01183 […], Compound D 0.5 mg/kg): 12.2 mm
Total diameter (tumor + leg) ([11]; Day 9): 12.7 mm
Total diameter (tumor + leg) ([11]; Day 9, iv Days 0, 7 and 14, PM01183 […], 4-R 0.30 mg/kg): 12.3 mm
Total diameter (tumor + leg) ([11]; Day 9, iv Days 0, 7 and 14, PM01183 […], Compound D 0.5 mg/kg): 12.6 mm
Total diameter (tumor + leg) ([11]; Day 12): 13.7 mm
Total diameter (tumor + leg) ([11]; Day 12, iv Days 0, 7 and 14, PM01183 […], Compound D 0.5 mg/kg): 13.1 mm
Total diameter (tumor + leg) ([11]; Day 14): 14.6 mm
Total diameter (tumor + leg) ([11]; Day 14, iv Days 0, 7 and 14, PM01183 […], 4-R 0.30 mg/kg): 14.6 mm
Total diameter (tumor + leg) ([11]; Day 14, iv Days 0, 7 and 14, PM01183 […], Compound D 0.5 mg/kg): 14.6 mm
Total diameter (tumor + leg) ([11]; Day 16): 15.5 mm
Total diameter (tumor + leg) ([11]; Day 16, iv Days 0, 7 and 14, PM01183 […], Compound D 0.5 mg/kg): 14.5 mm
Total diameter (tumor + leg) ([11]; Day 19): 15.6 mm
Total diameter (tumor + leg) ([11]; Day 19, iv Days 0, 7 and 14, PM01183 […], Compound D 0.5 mg/kg): 15.0 mm
Total diameter (tumor + leg) ([11]; Day 21): 18.0 mm
Total diameter (tumor + leg) ([11]; Day 21, iv Days 0, 7 and 14, PM01183 […], 4-R 0.30 mg/kg): 15.1 mm
Total diameter (tumor + leg) ([11]; Day 21, iv Days 0, 7 and 14, PM01183 […], Compound D 0.5 mg/kg): 18.0 mm
Total diameter (tumor + leg) ([11]; Day 23, iv Days 0, 7 and 14, PM01183 […], 4-R 0.30 mg/kg): 16.3 mm
